Tests used:
Format in all cases: functional, cell-based
Conditions in all cases: Homo sapiens
HEK293 [1] = experiment: The compound was evaluated for cytotoxicity by assessing 3H thymidine uptake in HEK293 cell line in presence of PSA (1 ug)
MCF7 = experiment: The compound was evaluated for cytotoxicity by assessing 3H thymidine uptake in MCF-7 cell line
LNCaP [2] = experiment: The compound was evaluated for cytotoxicity by assessing 3H thymidine uptake in LNCaP cell line
HEK293 [3] = experiment: The compound was evaluated for cytotoxicity by assessing 3H thymidine uptake in HEK293 cell line
LNCaP [4] = experiment: The compound was evaluated for cytotoxicity by assessing 3H thymidine uptake in LNCaP cell line in presence of PSA (1 ug)

Compound | IC50 (HEK293 [1]) [µM] | IC50 (MCF7) [µM] | IC50 (LNCaP [2]) [µM] | IC50 (HEK293 [3]) [µM] | IC50 (LNCaP [4]) [µM]
N[C@@H](Cc1ccc(O)cc1)C(=O)Nc1ccc(COC(=O)N(CCCl)CCCl)cc1 | 173 | > 900 | 33 | 176 | 34
CC(C)(C)OC(=O)N[C@@H](Cc1ccc(O)cc1)C(=O)Nc1ccc(COC(=O)N(CCO)CCO)cc1 | – | > 900 | > 500 | > 600 | –
